Values quoted from earlier work as cited in article PMC6008299, “Impact of race on dose selection of molecular-targeted agents in early-phase oncology trials” (British Journal of Cancer, 2018).
Like-named read-outs stand apart in the source and are kept apart here. Marks after values point to notes of the source that are not given here.

Columns and labels:
[1] = Asian, at the MTD, ref not given, cited from earlier work
[2] = system: patients with solid tumours; conditions: dose at which PK is compared; ref not given; cited from earlier work
[3] = system: patients with solid tumours; set-up: method as in PMID 15955900; conditions: recommended phase 2 dose; ref [11]–[44]; cited from earlier work
[4] = system: patients with solid tumours; set-up: method as in PMID 15955900; conditions: recommended phase 2 dose; ref [11]–[44]; cited from earlier work; remark: listed apart in the source
[5] = cited from earlier work
[6] = at the MTD, Day 1, ref not given
[7] = at the MTD, Day 28, ref not given
[8] = at the MTD, Day 15, ref not given
[9] = at the MTD, Day 8, ref not given
[10] = at the MTD, Day 23 or 24, ref not given
[11] = at the MTD, Day 21, ref not given

## CN(C)C/C=C/C(=O)Nc1cc2c(Nc3ccc(F)c(Cl)c3)ncnc2cc1O[C@H]1CCOC1 [Afatinib]
[1]; Day 1
  AUC0-24: 539 ng·h/mL
  T1/2: 14.8 h
[1]; Day 28
  AUC0-24: 1010 ng·h/mL
  T1/2: 33.5 h
[2]
  MTD: 50 mg QD
[3]
  RP2D (Western): 50 mg QD
[4]
  RP2D (Japan): 50 mg QD
[5]; Caucasian, at the MTD, Day 1 (footnote *), ref not given
  AUC0-∞: 762* ng·h/mL
[5]; [6]
  T1/2: 21.9 h
  Tmax: 5.08 h
[5]; [7]
  AUC0-24: 598 ng·h/mL
  T1/2: 22.3 h
  Tmax: 5.00 h

## CNC(=O)c1ccccc1Sc1ccc2c(/C=C/c3ccccn3)n[nH]c2c1 [Axitinib]
[1]; Day 1
  AUC0-24: 142 ng·h/mL
  Cmax: 17.0 ng/mL
  T1/2: 4.8 h
  Tmax: 4.10 h
[1]; Day 15
  AUC0-24: 138 ng·h/mL
  Cmax: 21.4 ng/mL
  T1/2: 4.04 h
  Tmax: 1.37 h
[2]
  MTD: 5 mg BID
[3]
  RP2D (Western): 5 mg BID
[4]
  RP2D (Japan): 5 mg BID
[5]; [6]
  AUC0-24: 188 ng·h/mL
  Cmax: 22 ng/mL
  T1/2: 2.3 h
  Tmax: 3.2 h
[5]; [8]
  AUC0-24: 258 ng·h/mL
  Cmax: 27 ng/mL
  T1/2: 2.3 h
  Tmax: 2.4 h

## Cc1cc(Nc2ncc(Cl)c(Nc3ccccc3S(=O)(=O)C(C)C)n2)c(OC(C)C)cc1C1CCNCC1 [Ceritinib]
[1]; Day 8
  AUC0-24: 25700 ng·h/mL
  Cmax: 1220 ng/mL
  Tmax: 6.96 h
[2]
  MTD: 750 mg QD
[3]
  RP2D (Western): 750 mg QD
[4]
  RP2D (Japan): 750 mg QD
[5]; [9]
  AUC0-24: 16,500±4750 ng·h/mL
  Cmax: 800 ± 205 ng/mL
  T1/2: 41 h
  Tmax: 4 to 6 h

## C[C@@H](Oc1cc(-c2cnn(C3CCNCC3)c2)cnc1N)c1c(Cl)ccc(F)c1Cl [Crizotonib]
[3]
  RP2D (Western): 250 mg BID
[4]
  RP2D (Japan): 250 mg BID

## C#Cc1cccc(Nc2ncnc3cc(OCCOC)c(OCCOC)cc23)c1 [Erlotinib]
[1]; Day 1
  Cmax: 958 ± 457.19 ng/mL
  T1/2: 25.92 ± 9.31 h
  Tmax: 6.00 ± 8.92 h
[1]; Day 23 or 24
  Cmax: 2384.33 ± 932.43 ng/mL
  T1/2: 27.19 ± 9.07 h
  Tmax: 1.83 ± 0.41 h
[2]
  MTD: 150 mg QD
[3]
  RP2D (Western): 150 mg QD
[4]
  RP2D (Japan): 150 mg QD
[5]; [6]
  AUC0-24: 16510 ± 11020 ng·h/mL
  Cmax: 1136 ± 865 ng/mL
  T1/2: 20 ± 9.74 h
[5]; [10]
  AUC0-24: 38420 ± 29550 ng·h/mL
  Cmax: 2120 ± 1520 ng/mL
  T1/2: 18.18 ± 5.74 h

## CO[C@H]1C[C@@H]2CC[C@@H](C)[C@@](O)(O2)C(=O)C(=O)N2CCCC[C@H]2C(=O)O[C@H]([C@H](C)C[C@@H]2CC[C@@H](OCCO)[C@H](OC)C2)CC(=O)[C@H](C)/C=C(\C)[C@@H](O)[C@@H](OC)C(=O)[C@H](C)C[C@H](C)/C=C/C=C/C=C/1C [Everolimus]
[4]
  RP2D (Japan): 10 mg QD

## CS(=O)(=O)CCNCc1ccc(-c2ccc3ncnc(Nc4ccc(OCc5cccc(F)c5)c(Cl)c4)c3c2)o1 [Lapatinib]
[3]
  RP2D (Western): 1250 mg QD
[4]
  RP2D (Japan): 1500 mg QD

## COc1cc2nccc(Oc3ccc(NC(=O)NC4CC4)c(Cl)c3)c2cc1C(N)=O [Lenvatinib]
[1]; Day 1
  AUC0-24: 3150 ng·h/mL
  Cmax: 418 ng/mL
[1]; Day 15
  AUC0-24: 4140 ng·h/mL
  Cmax: 518 ng/mL
  Tmax: 2.0 h
[5]; [6]
  AUC0-24: 3913.8 ng·h/mL
  Cmax: 598.0 ng/mL
  T1/2: 5.3 h
  Tmax: 1.5 h
[5]; [7]
  AUC0-24: 4783.0 ng·h/mL
  Cmax: 579.1 ng/mL
  T1/2: 5.8 h
  Tmax: 2.8 h

## Cc1ccc(Nc2nccc(N(C)c3ccc4c(C)n(C)nc4c3)n2)cc1S(N)(=O)=O [Pazopanib]
[3]
  RP2D (Western): 800 mg QD

## CNC(=O)c1cc(Oc2ccc(NC(=O)Nc3ccc(Cl)c(C(F)(F)F)c3)c(F)c2)ccn1 [Regorafenib]
[2]
  MTD: 160 mg QD
[3]
  RP2D (Western): 160 mg QD
[4]
  RP2D (Japan): 160 mg QD
[5]; [11]
  AUC0-24: 58270 ng·h/mL
  Cmax: 3904 ng/mL
  T1/2: 22.23 h
  Tmax: 5.033 h

## CNC(=O)c1cc(Oc2ccc(NC(=O)Nc3ccc(Cl)c(C(F)(F)F)c3)cc2)ccn1 [Sorafenib]
[3]
  RP2D (Western): 400 mg BID
[4]
  RP2D (Japan): 400 mg BID

## CCN(CC)CCNC(=O)c1c(C)[nH]c(/C=C2\C(=O)Nc3ccc(F)cc32)c1C [Sunitinib]
[1]; Day 1
  AUC0-24: 374 ng·h/mL
  Cmax: 22.8 ng/mL
  Tmax: 7 h
[1]; Day 28
  AUC0-24: 1406 ng·h/mL
  Cmax: 69.3 ng/mL
  Tmax: 6 h
[2]
  MTD: 50 mg QD
[3]
  RP2D (Western): 50 mg QD
[4]
  RP2D (Japan): 50 mg QD
[5]; [6]
  AUC0-24: 420 ng·h/mL
  Tmax: 5.0 h
[5]; [7]
  AUC0-24: 1296 ng·h/mL
  Tmax: 8.5 h

## COc1cc2c(Nc3ccc(Br)cc3F)ncnc2cc1OCC1CCN(C)CC1 [Vandetanib]
[3]
  RP2D (Western): 300 mg QD
[4]
  RP2D (Japan): 300 mg QD

## CCCS(=O)(=O)Nc1ccc(F)c(C(=O)c2c[nH]c3ncc(-c4ccc(Cl)cc4)cc23)c1F [Vemurafenib]
[1]; Day 1
  T1/2: 12.7 h
[1]; Day 15
  T1/2: 60.8 h
[2]
  MTD: 960 mg BID
[3]
  RP2D (Western): 960 mg BID
[4]
  RP2D (Japan): 960 mg BID
[5]; [8]
  Cmax: 61400 ng/mL
  T1/2: 34.1 h
[5]; in vivo
  Cmax: 4800 ng/mL
  Tmax: 5.0 h
